Test system: anesthetized dogs
Experiment: Cardiovascular and respiratory function in anesthetized dogs (safety pharmacology)
Format: in vivo
Details: anesthetized Beagle dogs; three ascending doses 400, 800, and 1,200 mg/kg/day; infusion through the jugular vein; compared to the vehicle control group
Experimental: The pharmacological properties of 3-(3,4-dimethoxy-phenyl)-3-(1-oxo-1,3-dihydro-isoindol-2-yl)-propionamide, including activity comparisons with thalidomide, are characterized in in vitro studies. Studies examine the effects of 3-(3,4-dimethoxy-phenyl)-3-(1-oxo-1,3-dihydro-isoindol-2-yl)-propionamide on the production of various cytokines. In addition, a safety pharmacology study of 3-(3,4-dimethoxy-phenyl)-3-(1-oxo-1,3-dihydro-isoindol-2-yl)-propionamide is conducted in dogs and the effects of the compound on ECG parameters are examined further as part of three repeat-dose toxicity studies in primates.
The effects of 3-(3,4-dimethoxy-phenyl)-3-(l-oxo-1,3-dihydro-isoindol-2-yl)-propionamide on cardiovascular and respiratory function are investigated in anesthetized dogs. Two groups of Beagle dogs (2/sex/group) are used. One group receives three doses of vehicle only and the other receives three ascending doses of 3-(3,4-dimethoxy-phenyl)-3-(1-oxo-1,3-dihydro-isoindol-2-yl)-propionamide (400, 800, and 1,200 mg/kg/day). In all cases, doses of 3-(3,4-dimethoxy-phenyl)-3-(1-oxo-1,3-dihydro-isoindol-2-yl)-propionamide or vehicle are successively administered via infusion through the jugular vein separated by intervals of at least 30 minutes. […]

COc1ccc(C(CC(N)=O)N2Cc3ccccc3C2=O)cc1OC (stereo not shown) [3-(3,4-dimethoxy-phenyl)-3-(1-oxo-1,3-dihydro-isoindol-2-yl)-propionamide]
cardiovascular and respiratory changes: minimal
